Experimental data reported in ChEMBL document CHEMBL4613308, “Screen of Unfocused Libraries Identified Compounds with Direct or Synergistic Antibacterial Activity” (ACS Med Chem Lett, 2020).
In brackets after ≈: the same amount, converted by molar mass.

Legend:
Acinetobacter baumannii [1] = assay: Antibacterial activity against Acinetobacter baumannii ATCC 17978 assessed as bacterial growth inhibition by agar diffusion assay; assay type: functional
Pseudomonas aeruginosa [2] = assay: Antibacterial activity against Pseudomonas aeruginosa ATCC 27853 assessed as bacterial growth inhibition by agar diffusion assay; assay type: functional
Acinetobacter baumannii [3] = assay: Synergistic antibacterial activity against Acinetobacter baumannii ATCC 17978 in presence of 0.5 times MIC of colistin by microdilution broth method; assay type: functional
Escherichia coli [4] = assay: Antibacterial activity against Escherichia coli CCUG assessed as bacterial growth inhibition by agar diffusion assay; assay type: functional
Klebsiella pneumoniae [5] = assay: Synergistic antibacterial activity against Klebsiella pneumoniae ATCC 13833 in presence of 0.5 times MIC of colistin by microdilution broth method; assay type: functional
Klebsiella pneumoniae [6] = assay: Potentiation of colistin-induced antibacterial activity against Klebsiella pneumoniae ATCC 13833 assessed as fold reduction in colistin MIC by microdilution broth method relative to colistin MIC; assay type: functional
Escherichia coli [7] = assay: Synergistic antibacterial activity against Escherichia coli CCUG in presence of 0.5 times MIC of colistin by microdilution broth method; assay type: functional
Acinetobacter baumannii [8] = assay: Potentiation of colistin-induced antibacterial activity against Acinetobacter baumannii ATCC 17978 assessed as fold reduction in colistin MIC by microdilution broth method relative to colistin MIC; assay type: functional
Escherichia coli [9] = assay: Potentiation of colistin-induced antibacterial activity against Escherichia coli CCUG assessed as fold reduction in colistin MIC in by microdilution broth method relative to colistin MIC; assay type: functional
Klebsiella pneumoniae [10] = assay: Antibacterial activity against Klebsiella pneumoniae ATCC 13833 assessed as bacterial growth inhibition by agar diffusion assay; assay type: functional
HeLa = assay: Cytotoxicity against human HeLa cells assessed as reduction in cell viability assay by CellTox-Green assay; assay type: cell-based
Pseudomonas aeruginosa [11] = assay: Synergistic antibacterial activity against Pseudomonas aeruginosa ATCC 27853 assessed as fractional inhibitory concentration index in presence of colistin by Checkerboard assay; assay type: functional
Pseudomonas aeruginosa [12] = assay: Potentiation of colistin-induced antibacterial activity against Pseudomonas aeruginosa ATCC 27853 assessed as fold reduction in colistin MIC by microdilution broth method relative to colistin MIC; assay type: functional
Klebsiella pneumoniae [13] = assay: Synergistic antibacterial activity against colistin-resistant Klebsiella pneumoniae SI-081R clinical isolate in presence of 2 ug/ml colistin by microdilution broth method (reference value: 256 ug/ml); assay type: functional
Klebsiella pneumoniae [14] = assay: Synergistic antibacterial activity against colistin-resistant Klebsiella pneumoniae SI-004Bo clinical isolate in presence of 2 ug/ml colistin by microdilution broth method (reference value: 64 ug/ml); assay type: functional
Acinetobacter baumannii [15] = assay: Synergistic antibacterial activity against multidrug-resistant Acinetobacter baumannii N50 in presence of 2 ug/ml colistin by microdilution broth method; assay type: functional
Pseudomonas aeruginosa [16] = assay: Synergistic antibacterial activity against Pseudomonas aeruginosa ATCC 27853 in presence of 0.5 times MIC of colistin by microdilution broth method; assay type: functional
Acinetobacter baumannii [17] = assay: Synergistic antibacterial activity against Acinetobacter baumannii ATCC 17978 assessed as fractional inhibitory concentration index in presence of colistin by Checkerboard assay; assay type: functional
Bacillus spizizenii = assay: Antibacterial activity against Bacillus subtilis ATCC 6633 assessed as bacterial growth inhibition by agar diffusion assay; assay type: functional
Streptococcus pyogenes = assay: Antibacterial activity against Streptococcus pyogenes ATCC 12344 assessed as bacterial growth inhibition by agar diffusion assay; assay type: functional
Staphylococcus aureus = assay: Antibacterial activity against Staphylococcus aureus ATCC 25923 assessed as bacterial growth inhibition by agar diffusion assay; assay type: functional
Acinetobacter baumannii [18] = assay: Antibacterial activity against Acinetobacter baumannii AC-54/97 clinical isolate assessed as bacterial growth inhibition by agar diffusion assay; assay type: functional
Enterobacter cloacae [19] = assay: Antibacterial activity against multidrug-resistant Enterobacter cloacae VA 417/02 clinical isolate assessed as bacterial growth inhibition by agar diffusion assay; assay type: functional
Enterobacter cloacae [20] = assay: Antibacterial activity against multidrug-resistant Enterobacter cloacae Z19 clinical isolate assessed as bacterial growth inhibition by agar diffusion assay; assay type: functional
Enterococcus faecalis = assay: Antibacterial activity against Enterococcus faecalis ATCC 29212 assessed as bacterial growth inhibition by agar diffusion assay; assay type: functional
Escherichia coli [21] = assay: Antibacterial activity against multidrug-resistant Escherichia coli Z25 clinical isolate assessed as bacterial growth inhibition by agar diffusion assay; assay type: functional
Pseudomonas aeruginosa [22] = assay: Antibacterial activity against multidrug-resistant Pseudomonas aeruginosa VR-143/97 clinical isolate assessed as bacterial growth inhibition by agar diffusion assay; assay type: functional

Compound | MIC (Acinetobacter baumannii [1]) | MIC (Pseudomonas aeruginosa [2]) | MIC (Acinetobacter baumannii [3]) | MIC (Escherichia coli [4]) | MIC (Klebsiella pneumoniae [5]) | log2FC (Klebsiella pneumoniae [6]) | MIC (Escherichia coli [7]) | log2FC (Acinetobacter baumannii [8]) | log2FC (Escherichia coli [9]) | MIC (Klebsiella pneumoniae [10]) | MIC (Bacillus spizizenii) | MIC (Streptococcus pyogenes) | MIC (Staphylococcus aureus) | MIC (Acinetobacter baumannii [18]) | MIC (Enterobacter cloacae [19]) | MIC (Enterobacter cloacae [20]) | MIC (Enterococcus faecalis) | MIC (Escherichia coli [21]) | MIC (Pseudomonas aeruginosa [22]) | further results
CCCCCCc1ccc(O)cc1OCCCCCCCCCCC(=O)NCCO | > 512 µg/mL | > 512 µg/mL | 16 µg/mL | > 512 µg/mL | 8 µg/mL | 6 | 4 µg/mL | 5 | 7 | > 512 µg/mL | – | – | – | – | – | – | – | – | – | –
CCCCCCc1ccc(OCCCCCCCC(=O)NCCO)cc1O | > 512 µg/mL | > 512 µg/mL | 16 µg/mL | > 512 µg/mL | 4 µg/mL | 7 | 8 µg/mL | 5 | 6 | > 512 µg/mL | – | – | – | – | – | – | – | – | – | –
CCCCCc1cc(O)cc(OCCCCCCCCCCCC(=O)NCCO)c1 | > 512 µg/mL | > 512 µg/mL | 4 µg/mL | > 512 µg/mL | 8 µg/mL | 6 | 8 µg/mL | 7 | 6 | > 512 µg/mL | – | – | – | – | – | – | – | – | – | IC50 (HeLa): 18 µg/mL (≈ 42.7 µM); fractional inhibitory concentration index (FICI) (Pseudomonas aeruginosa [11]): 0.41; log2FC (Pseudomonas aeruginosa [12]): 7; MIC (Klebsiella pneumoniae [13]): > 64 µg/mL; MIC (Klebsiella pneumoniae [14]): > 64 µg/mL; MIC (Acinetobacter baumannii [15]): 4 µg/mL; MIC (Pseudomonas aeruginosa [16]): 4 µg/mL; fractional inhibitory concentration index (FICI) (Acinetobacter baumannii [17]): 0.31
CC(C)(C)n1cc(C(=O)O)c(=O)c2cc(F)c(-c3cccnc3)cc21 | 0.5 µg/mL (≈ 1.47 µM) | 4 µg/mL (≈ 11.8 µM) | – | 2 µg/mL (≈ 5.88 µM) | – | – | – | – | – | 0.25 µg/mL (≈ 0.735 µM) | ≤ 0.12 µg/mL | ≤ 0.12 µg/mL | ≤ 0.12 µg/mL | 64 µg/mL (≈ 188 µM) | 0.5 µg/mL (≈ 1.47 µM) | 256 µg/mL (≈ 752 µM) | 0.5 µg/mL (≈ 1.47 µM) | 256 µg/mL (≈ 752 µM) | 64 µg/mL (≈ 188 µM) | –
O=C(O)c1cn(C2CC2)c2cc(Br)c(F)cc2c1=O | 0.5 µg/mL (≈ 1.53 µM) | 8 µg/mL (≈ 24.5 µM) | – | 0.25 µg/mL (≈ 0.767 µM) | – | – | – | – | – | ≤ 0.12 µg/mL | ≤ 0.12 µg/mL | 4 µg/mL (≈ 12.3 µM) | 4 µg/mL (≈ 12.3 µM) | 256 µg/mL (≈ 785 µM) | 0.25 µg/mL (≈ 0.767 µM) | > 256 µg/mL | 4 µg/mL (≈ 12.3 µM) | > 256 µg/mL | 256 µg/mL (≈ 785 µM) | –
CCCCCCC(C)(C)c1cc(O)cc(OCCCCCCCC(=O)NCCO)c1 | > 512 µg/mL | > 512 µg/mL | 4 µg/mL | > 512 µg/mL | 4 µg/mL | 7 | 2 µg/mL | 7 | 8 | > 512 µg/mL | – | – | – | – | – | – | – | – | – | –
CCCCCc1cc(O)cc(OCCCCCCCCCCC(=O)NC(CO)CO)c1 | > 512 µg/mL | > 512 µg/mL | 4 µg/mL | > 512 µg/mL | 8 µg/mL | 6 | 8 µg/mL | 7 | 6 | > 512 µg/mL | – | – | – | – | – | – | – | – | – | –
CCCCCCc1ccc(O)cc1OCCCCCC(=O)NCCO | > 512 µg/mL | > 512 µg/mL | 8 µg/mL | > 512 µg/mL | – | – | – | 6 | – | > 512 µg/mL | – | – | – | – | – | – | – | – | – | –
CC(C)(C)n1cc(C(=O)O)c(=O)c2cc(F)c(Sc3ccccc3)cc21 | 32 µg/mL (≈ 86.2 µM) | 256 µg/mL (≈ 689 µM) | – | 16 µg/mL (≈ 43.1 µM) | – | – | – | – | – | 8 µg/mL (≈ 21.5 µM) | ≤ 0.12 µg/mL | 1 µg/mL (≈ 2.69 µM) | 2 µg/mL (≈ 5.38 µM) | > 256 µg/mL | 16 µg/mL (≈ 43.1 µM) | 256 µg/mL (≈ 689 µM) | 2 µg/mL (≈ 5.38 µM) | > 256 µg/mL | 128 µg/mL (≈ 345 µM) | –
CCOC(=O)c1cn(CC)c2cc(N)c(F)cc2c1=O | 256 µg/mL (≈ 920 µM) | > 256 µg/mL | – | 32 µg/mL (≈ 115 µM) | – | – | – | – | – | 128 µg/mL (≈ 460 µM) | 32 µg/mL (≈ 115 µM) | 64 µg/mL (≈ 230 µM) | 256 µg/mL (≈ 920 µM) | > 256 µg/mL | > 256 µg/mL | > 256 µg/mL | 256 µg/mL (≈ 920 µM) | > 256 µg/mL | > 256 µg/mL | –
